The target in one data set is acetylcholine esterase (Homo sapiens, UniProt P22303). Description: biochemical. The text has this: The determination of the acetylcholine esterase inhibition was effected according to the method of Ellmann et al., Biochem. Pharmacol. 7 (1961) 88, and/or according to the method of Johnson et al., Analytical Biochemistry 64 (1975), 229.
The next data set has as its system rat. Description: Toxicity, lowest lethal dose (LLD), rat.
The test system of a further data set is mouse. Nature of the data set: Toxicity, lowest lethal dose (LLD), mouse. As to conditions: po mouse. In kind it is in vivo.
The next data set relates to Sigma. Nature of the data set: Sigma receptor binding, [3H]-DTG (Weber et al.). As to conditions: for Percentage inhibition: [3H]-DTG. The text has this:
(§1) Furthermore, the compounds of formula I have affinity for sigma receptors, determined according to Weber et al., Proc. Natl. Acad. Sci. USA 83 (1986), 8784) and in part also for muscarinic receptors, determined according to Watson et al., Pharmacol. Exp. Ther. 237 (1986), 419 and according to Eberlein et al., Trends Pharmacol. Science 10 (1989), 50.

For a further data set, the system named is M1. Description: Muscarinic M1 receptor binding, [3H]-Pirenzepine.
Excerpt: as §1

Another data set concerns M2. Description: Muscarinic M2 receptor binding, [3H]-AFDX 384.
Excerpt: as §1

The test system of data set [1] is muscarinic receptors. Nature of the data set: Affinity for muscarinic receptors (Watson et al.; Eberlein et al.). Type of data set: binding.
Excerpt: as §1

Data set [2] has as its system muscarinic receptors. Nature of the data set: Antagonism of contraction of guinea pig plexus myentericus preparation induced by muscarinic agonists (Kilbinger et al.). As to conditions: micromolar concentrations.
[3] abbreviates: IC 50 for acetylcholine esterase inhibition.
[4] abbreviates: read-out: IC 50 for acetylcholine esterase inhibition.

Counter-ions that a name gives are not always drawn. Like-named read-outs stand apart in the source and are kept apart here.

Chain of acetylcholine esterase (P22303 32-614): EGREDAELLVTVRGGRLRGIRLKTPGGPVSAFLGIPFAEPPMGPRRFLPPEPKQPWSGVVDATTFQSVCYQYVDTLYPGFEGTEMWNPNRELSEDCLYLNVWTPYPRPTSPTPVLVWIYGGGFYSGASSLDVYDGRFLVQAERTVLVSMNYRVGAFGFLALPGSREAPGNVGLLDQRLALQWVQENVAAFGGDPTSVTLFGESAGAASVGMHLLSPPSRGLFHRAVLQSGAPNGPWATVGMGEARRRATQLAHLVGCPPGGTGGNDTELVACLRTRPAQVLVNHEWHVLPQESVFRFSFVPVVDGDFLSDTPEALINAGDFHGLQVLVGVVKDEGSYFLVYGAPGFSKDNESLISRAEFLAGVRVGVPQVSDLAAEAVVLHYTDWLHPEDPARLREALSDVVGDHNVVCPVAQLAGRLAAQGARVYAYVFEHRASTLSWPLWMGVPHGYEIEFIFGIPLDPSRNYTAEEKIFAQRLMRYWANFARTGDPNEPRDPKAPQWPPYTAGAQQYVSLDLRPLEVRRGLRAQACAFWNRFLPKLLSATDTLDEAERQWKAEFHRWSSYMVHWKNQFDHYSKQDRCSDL

Regarding `CN(C)C(=O)Oc1cccc2c1CC[C@H]1[C@@H]2CCN1CCC1CCCCC1.Cl` (racemic) [C, rac-cis-3-(2-cyclohexylethyl)-2,3,3a,4,5,9b-hexahydro-1H-benzo[e]indol-6-yl dimethylcarbamate hydrochloride], the IC50 against acetylcholine esterase (setting [3]) was 16 nM. Also, in the data set on rat (ip rat), the “LLD (lowest lethal dose)” value is listed as 30 mg/kg.
Taken in the same sequence, the figures for `CN(C)C(=O)Oc1cccc2c1CC[C@H]1[C@@H]2CCN1CCCCN1C(=O)c2ccccc2C1=O.Cl` (racemic) [D, rac-cis-2,3,3a,4,5,9b-hexahydro-3-(4-phthalimidobutyl)-1H-benzo[e]indol-6-yl dimethylcarbamate hydrochloride] were 1.4 nM and 3 mg/kg.
As to `CN(C)C(=O)Oc1cccc2c1CC[C@H]1[C@@H]2CCN1CCCCCCN1C(=O)c2ccccc2C1=O.Cl` (racemic) [E, rac-cis-2,3,3a,4,5,9b-hexahydro-3-(6-phthalimidohexyl)-1H-benzo[e]indol-6-yl dimethylcarbamate hydrochloride], the IC50 against acetylcholine esterase (setting [3]) was determined as 0.4 nM. In the data set on rat (sc rat), the “LLD (lowest lethal dose)” value was 10 mg/kg.
At acetylcholine esterase (setting [3]), `CN(C)C(=O)Oc1cccc2c1CC[C@H]1[C@@H]2CCN1CCN1CCOCC1.Cl.Cl` (racemic) [F, rac-cis-2,3,3a,4,5,9b-hexahydro-3-(2-morpholinoethyl)-1H-benzo[e]indol-6-yl dimethylcarbamate dihydrochloride] returned an IC50 of 108 nM. In the data set on rat (sc rat), the “LLD (lowest lethal dose)” value was 30 mg/kg.
For `CCCN1CC[C@@H]2c3c(cccc3OC(=O)N(C)C)CC[C@@H]21` (racemic) [G, rac-cis-2,3,3a,4,5,9b-hexahydro-3-propyl-1H-benzo[e]indol-9-yl dimethylcarbamate], the IC50 on acetylcholine esterase (setting [4]) stood at 350 nM. In addition, the “LLD (lowest lethal dose)” value with mouse stood at 125 mg/kg.
With `CCCN1C[C@@H](C)[C@@H]2c3cccc(OC(=O)N(C)C)c3CC[C@@H]21` (relative stereo) [H, rac-2,3,3aα,4,5,9bα-hexahydro-1α-methyl-3-propyl-1H-benzo[e]indol-6-yl dimethylcarbamate], the IC50 at acetylcholine esterase (setting [4]) was determined as 488 nM. Besides, the “LLD (lowest lethal dose)” value in the data set with rat (sc rat) was determined as 100 mg/kg.
For the molecule `CN(C)C(=O)Oc1cccc2c1CC[C@@H]1[C@H]2CCN1Cc1ccccc1` (relative stereo) [rac-3-benzyl-2,3,3a,4,5,9b-hexahydro-1H-cis-benzo[e]indol-6-yl dimethylcarbamate], the IC50 at acetylcholine esterase (setting [4]) was 49 nM.
Same read-out and setting: in the case of `CN(C)C(=O)Oc1cccc2c1CC[C@@H]1[C@H]2CCN1CCCCNC(=O)c1ccc(S(C)(=O)=O)cc1` (relative stereo) [rac-N-[4-(6-dimethylcarbamoyloxy)-cis-2,3,3a,4,5,9b-hexahydro-1H-benzo[e]indol-3-yl)-butyl]-4-methanesulfonylbenzamide] it was 6.7 nM.
For `CCNC(=O)Oc1cccc2c1CC[C@H]1[C@@H]2CCN1CCC1CCCCC1` (single isomer, unassigned) [(+)-cis-3-(2-cyclohexylethyl)-2,3,3a,4,5,9b-hexahydro-1H-benzo[e]indol-6-yl ethylcarbamate], the IC50 on acetylcholine esterase (setting [4]) was 2460 nM.
With `CCN(C)C(=O)Oc1cccc2c1CC[C@H]1[C@@H]2CCN1CCC1CCCCC1` (single isomer, unassigned) [(+)-cis-3-(2-cyclohexylethyl)-2,3,3a,4,5,9b-hexahydro-1H-benzo[e]indol-6-yl ethylmethylcarbamate], on acetylcholine esterase (setting [4]), the IC50 stood at 3.5 nM.
For the molecule `CNC(=O)Oc1cccc2c1CC[C@H]1[C@@H]2CCN1CCC1CCCCC1` (single isomer, unassigned) [(+)-cis-3-(2-cyclohexylethyl)-2,3,3a,4,5,9b-hexahydro-1H-benzo[e]indol-6-yl methylcarbamate], the IC50 on acetylcholine esterase (setting [4]) is 18 nM.
On to `CCCNC(=O)Oc1cccc2c1CC[C@H]1[C@@H]2CCN1CCC1CCCCC1` (single isomer, unassigned) [(+)-cis-3-(2-cyclohexylethyl)-2,3,3a,4,5,9b-hexahydro-1H-benzo[e]indol-6-yl propylcarbamate], for which the IC50 at acetylcholine esterase (setting [4]) came to 2.6 nM.
As to `CN(C)C(=O)Oc1cccc2c1CC[C@H]1[C@H]2CCN1CCC1CCCCC1` (single isomer, unassigned) [(+)-trans-3-(2-cyclohexylethyl)-2,3,3a,4,5,9b-hexahydro-1H-benzo[e]indol-6-yl dimethylcarbamate], on acetylcholine esterase (setting [4]), the IC50 came to 22 nM.
Consider `CN(C)C(=O)Oc1cccc2c1CC[C@H]1[C@@H]2CCN1CCC1CCCCC1.Cl` (single isomer, unassigned) [A, (+)-cis-3-(2-cyclohexylethyl)-2,3,3a,4,5,9b-hexahydro-1H-benzo[e]indol-6-yl dimethylcarbamate hydrochloride], for which the IC50 against acetylcholine esterase (setting [3]) stood at 22 nM. Also, the “affinity for sigma receptors (in words)” value with Sigma is on record as “affinity to sigma receptors”. In addition, the Percentage inhibition in the data set with Sigma (10^-5 M) was determined as 100.7%; with Sigma (10^-7 M), 62.1%; in the data set with M1 (10^-5 M) it was 87.9%; in the data set on M1 (10^-7 M), 2.2%; in the data set on M2 ([3H]-AFDX 384, 10^-5 M), 94.8%; with M2 ([3H]-AFDX 384, 10^-7 M), 31.3%. In addition, the “affinity for muscarinic receptors (in words)” value in the data set on muscarinic receptors [1] was “preferential affinity for muscarinic receptors of the M2 type”. In addition, the “antagonism of contraction induced by muscarinic agonists (in words)” value in the data set on muscarinic receptors [2] was “in micromolar concentrations it antagonizes a contraction of a preparation of guinea pig plexus myentericus induced by muscarinic agonists”. In the data set with rat (sc rat), the “LLD (lowest lethal dose)” value turned out to be 30 mg/kg.
Regarding `CN(C)C(=O)Oc1cccc2c1CC[C@H]1[C@@H]2CCN1CCC1CCCCC1` (single isomer, unassigned) [B, (-)-cis-3-(2-cyclohexylethyl)-2,3,3a,4,5,9b-hexahydro-1H-benzo[e]indol-6-yl dimethylcarabamate hydrochloride], at acetylcholine esterase (setting [4]), the IC50 was 30 nM. The “LLD (lowest lethal dose)” value in the data set with rat (sc rat) is on record as 30 mg/kg.

Source of the values: patent publication US5318967A, “2,3,3a,4,5,9b-hexahydro-1H-benzo[e]indole derivatives” (priority 1991, dated 1994).
